Reference: ChEMBL document CHEMBL1201862, “PubChem BioAssay data set” (2004)
Activity calls are given as the source filed them. Rule as the data show it: actives have a measured IC50 and inactives only a lower limit.

Target: Envelope glycoprotein gp160 (Human immunodeficiency virus 1, UniProt Q6QLK5)
Assay: inhibitors of HIV fusion peptide binding, primary screen, biochemical, uHTS, fluorescence dequenching (AID 1986)

Sequence of Envelope glycoprotein gp160 (Q6QLK5 whole entry, the tested form may be a part): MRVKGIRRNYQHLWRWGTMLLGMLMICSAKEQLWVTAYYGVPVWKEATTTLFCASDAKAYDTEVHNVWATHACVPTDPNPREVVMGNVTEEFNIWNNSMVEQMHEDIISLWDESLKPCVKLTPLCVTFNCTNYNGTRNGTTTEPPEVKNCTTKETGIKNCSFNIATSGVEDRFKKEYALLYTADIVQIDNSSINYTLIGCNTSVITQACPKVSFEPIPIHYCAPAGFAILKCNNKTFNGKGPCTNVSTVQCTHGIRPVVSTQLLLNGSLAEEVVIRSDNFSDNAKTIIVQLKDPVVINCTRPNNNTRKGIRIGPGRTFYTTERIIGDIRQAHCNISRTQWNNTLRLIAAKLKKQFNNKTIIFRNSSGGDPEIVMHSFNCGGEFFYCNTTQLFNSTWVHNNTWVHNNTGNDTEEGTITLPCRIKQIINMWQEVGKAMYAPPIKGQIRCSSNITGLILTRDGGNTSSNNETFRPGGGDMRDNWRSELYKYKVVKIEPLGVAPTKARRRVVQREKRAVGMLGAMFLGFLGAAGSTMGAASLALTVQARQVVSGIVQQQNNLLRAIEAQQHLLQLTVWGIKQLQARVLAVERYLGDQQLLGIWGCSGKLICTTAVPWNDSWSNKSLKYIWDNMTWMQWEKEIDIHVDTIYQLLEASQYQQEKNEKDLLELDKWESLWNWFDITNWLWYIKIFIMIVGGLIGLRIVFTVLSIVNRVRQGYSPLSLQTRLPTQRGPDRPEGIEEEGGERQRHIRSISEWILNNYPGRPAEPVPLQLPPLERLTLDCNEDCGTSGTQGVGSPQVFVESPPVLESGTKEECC

**Q.** O=C(O)c1[nH]c2ccccc2c1C(c1ccccc1)c1c(C(=O)O)[nH]c2ccccc12 was tested. Which IC50 did it give?
**A.** 14 µM (active)

**Q.** For Cc1sc(-n2c(C)cc(/C=C3\SC(=S)NC3=O)c2C)c(C#N)c1C, which IC50 is on record?
**A.** 24.1 µM (active)

**Q.** For O=C(O)C1Nc2ccc(Br)cc2C2C=CCC12 (centres undefined), which IC50 is on record?
**A.** 10.9 µM (active)

**Q.** For CCc1ccc(S(=O)(=O)/N=C2\C=C(NS(=O)(=O)c3ccccc3)C(=O)c3ccccc32)cc1, which IC50 is on record?
**A.** 19.7 µM (active)
